# Laboratory results from patent publication US20260364184A1, “COMPOUND BASED ON OXOISOINDOLINYL-SUBSTITUTED TETRAHYDROPYRIMIDINE-DIONE AND USE THEREOF” (GLUETACS THERAPEUTICS (SHANGHAI) CO., LTD., priority 2023, published 2026).
# Key:
# Format in all cases: cell-based
# BCL-2 = biological target: T1, BCL-2 (Homo sapiens, UniProt P10415); assay: Western blot degradation of BCL-2; settings: Molt-4 Cell; 24 hours
# T1 construct: expression of target proteins in cells; endogenous in cells
# Description: Conventional Western blot assay was performed to evaluate the effects of the compounds of the present disclosure on the expression of target proteins in cells.
# (1) Cell Seeding and Protein Harvesting: The selected cells were processed according to the cell seeding procedure and protein harvesting procedure in Table II-2.
# (2) To the collected supernatant, 5×SDS sample loading buffer was added, followed by denaturation at 95 °C for 5 minutes. The denatured samples were then separated by SDS-PAGE electrophoresis on a polyacrylamide gel. Proteins were transferred to a nitrocellulose membrane (0.45 μm NC membrane), blocked with blocking buffer at room temperature for 1 hour, and subjected to antibody incubation and development procedures according to the antibody manufacturer's instructions (Cell Signaling Technology).
# Half-Maximal Degradation Concentration value (the drug concentration required for degrading proteins by 50%, abbreviated as DC50) reads method: comparing the grayscale values of Western blot bands from drug-treated samples with those from blank DMSO-treated controls, and identifying the drug concentration range at which the grayscale value is half that of the DMSO-treated control bands.
# DC50 values can be calculated using ImageJ software to measure grayscale values of Western blot bands from drug-treated samples. The concentration-response curve is fitted to estimate the drug concentration corresponding to half the grayscale value.
# Target protein remaining (%) refers to the percentage of target protein remaining in cells after treatment with protein degrader compounds.
# Calculation method for target protein remaining (%): Use ImageJ software to measure grayscale values of Western blot bands from drug (protein degrader)-treated samples. The grayscale value of drug-treated bands is divided by that of internal control protein bands, and the resulting quotient is normalized to obtain the relative percentage of remaining target protein after protein degrader treatment.
# Target protein degradation rate (%)=1−target protein remaining (%).
# [1] = system: Human Acute T Lymphoblastic Leukemia Cells (Molt-4); assay: Inhibition of Molt-4 cell proliferation (CellTiter luminescent viability); settings: Homo sapiens, MOLT-4, 96 h, Table IH3, BCL-2 inhibitor-based, 96 hours
# [2] = system: Human acute lymphocytic leukemia T lymphocytes cell line (CCRF-CEM); assay: Inhibition of CCRF-CEM cell proliferation (CellTiter luminescent viability); settings: Homo sapiens, 96 h, Table IH2, BCL-2 inhibitor-based
# T1 sequence (P10415 whole entry): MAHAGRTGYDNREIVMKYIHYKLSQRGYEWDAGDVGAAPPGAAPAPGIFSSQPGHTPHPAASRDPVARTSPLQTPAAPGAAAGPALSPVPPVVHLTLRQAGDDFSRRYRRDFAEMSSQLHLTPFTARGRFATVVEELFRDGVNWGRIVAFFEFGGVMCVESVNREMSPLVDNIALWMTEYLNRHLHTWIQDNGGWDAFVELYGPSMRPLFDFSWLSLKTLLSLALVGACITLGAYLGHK
Degradation of substrate protein BCL-2 (substrate protein remaining %) (BCL-2),SMILES,"inhibition at 0.01 µM ([1]; Molt-4, 10 nM, read-out: Inhibition Rate at 10 nM (%)) [%]","inhibition at 0.5 µM ([1]; Molt-4, 500 nM, read-out: Inhibition Rate at 500 nM (%)) [%]","inhibition at 0.01 µM ([2]; 10 nM, read-out: Inhibition Rate at 10 nM (%)) [%]","inhibition at 0.5 µM ([2]; 500 nM, read-out: Inhibition Rate at 500 nM (%)) [%]"
A (0%≤substrate protein remaining %≤80%),"CC1(C)CCC(c2ccc(Cl)cc2)=C(CN2CCN(c3ccc(C(=O)NS(=O)(=O)c4ccc(N[C@H](CCN5C[C@H]6C[C@@H]5CN6Cc5ccc6c(c5)C(=O)N(N5CCC(=O)NC5=O)C6=O)CSc5ccccc5)c(S(=O)(=O)C(F)(F)F)c4)cc3)CC2)C1 [GT-07816, 4-(4-((4′-chloro-4,4-dimethyl-3,4,5,6-tetrahydro-[1,1′-biphenyl]-2-yl)methyl)piperazin-1-yl)-N-((4-(((R)-4-((1R,4R)-5-((2-(2,4-dioxotetrahydropyrimidin-1(2H)-yl)-1,3-dioxoisoindolin-5-yl)methyl)-2,5-diazabicyclo[2.2.1]heptan-2-yl)-1-(phenylthio)butan-2-yl)amino)-3-((trifluoromethyl)sulfonyl)phenyl)sulfonyl)benzamide]",10 to 15,60 to 70,5 to 10,40 to 50
A (0%≤substrate protein remaining %≤80%),"CC1(C)CCC(c2ccc(Cl)cc2)=C(CN2CCN(c3ccc(C(=O)NS(=O)(=O)c4ccc(N[C@H](CCN5CC6CCC(C5)N6Cc5ccc6c(c5)C(=O)N(N5CCC(=O)NC5=O)C6=O)CSc5ccccc5)c(S(=O)(=O)C(F)(F)F)c4)cc3)CC2)C1 [GT-07817, 4-(4-((4′-chloro-4,4-dimethyl-3,4,5,6-tetrahydro-[1,1′-biphenyl]-2-yl)methyl)piperazin-1-yl)-N-((4-(((2R)-4-(8-((2-(2,4-dioxotetrahydropyrimidin-1(2H)-yl)-1,3-dioxoisoindolin-5-yl)methyl)-3,8-diazabicyclo[3.2.1]octan-3-yl)-1-(phenylthio)butan-2-yl)amino)-3-((trifluoromethyl)sulfonyl)phenyl)sulfonyl)benzamide]",–,–,–,–
